# From patent publication EP4610257A1, “CRYSTAL FORM OF ISOQUINOLINONE COMPOUND AND PREPARATION METHOD THEREFOR” (Jiangsu Hengrui Pharmaceuticals Co., Ltd., priority 2022, dated 2024)
# How the values were obtained:
# PDE3A = PDE3A (Homo sapiens, UniProt Q14432); assay: In vitro PDE3A enzyme activity assay, IMAP FP-based
# PDE4B1 = PDE4B1 (Homo sapiens, UniProt Q07343); assay: In vitro PDE4B enzyme activity assay, IMAP FP-based; details: for inhibition at 2 µM: read-out: Inhibition rate (%) PDE4B1(2000 nM)
# Chain of PDE4B1 (Q07343 whole entry): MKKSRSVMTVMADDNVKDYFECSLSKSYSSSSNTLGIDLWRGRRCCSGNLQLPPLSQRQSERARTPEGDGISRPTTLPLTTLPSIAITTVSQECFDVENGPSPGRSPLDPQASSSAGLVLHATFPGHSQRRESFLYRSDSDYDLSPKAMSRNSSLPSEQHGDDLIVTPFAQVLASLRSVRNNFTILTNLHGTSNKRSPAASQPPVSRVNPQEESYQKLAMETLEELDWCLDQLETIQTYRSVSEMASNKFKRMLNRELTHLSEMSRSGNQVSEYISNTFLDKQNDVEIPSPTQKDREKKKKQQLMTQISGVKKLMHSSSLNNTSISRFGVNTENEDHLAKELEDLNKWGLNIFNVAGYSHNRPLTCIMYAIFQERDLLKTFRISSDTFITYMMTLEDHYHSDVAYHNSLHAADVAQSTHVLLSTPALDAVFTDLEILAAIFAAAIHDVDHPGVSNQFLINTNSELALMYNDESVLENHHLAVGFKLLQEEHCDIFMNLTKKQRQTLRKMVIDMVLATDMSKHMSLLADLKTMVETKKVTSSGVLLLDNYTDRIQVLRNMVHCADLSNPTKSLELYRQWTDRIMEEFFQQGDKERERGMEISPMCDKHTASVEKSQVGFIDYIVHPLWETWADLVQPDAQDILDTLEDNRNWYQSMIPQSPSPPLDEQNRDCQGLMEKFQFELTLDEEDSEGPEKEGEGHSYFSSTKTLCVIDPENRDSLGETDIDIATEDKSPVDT
# in vivo = assay: in vivo; design: species or system ICR mice; details: both sexes, ICR, mouse, inhaled or intranasal
# Procedure: Test Example 3: PK Assay by Intratracheal Administration
# Time points for plasma collection were: 0.25 h, 0.5 h, 1 h, 2 h, 4 h, 8 h, 12 h, and 24 h. […] Time points for lung tissue collection were: 0.5 h, 2 h, 8 h, and 24 h.
# 30.0 µL of plasma sample was added to a 1.5 mL centrifuge tube, and 150 µL of an internal standard working solution was added. […] 70.0 µL of the supernatant was added to a 96-well plate, and 70.0 µL of deionized water was added. The resulting mixture was well shaken, and 2.00 µL of the mixture was taken for LC-MS/MS analysis.
# An appropriate amount of the lung tissue sample was accurately weighed out and placed into a homogenate tube, and acetonitrile was added at a volume equivalent to 5 times the weight of the sample. The mixture was homogenized and ultrasonicated for 5 min. 20.0 µL of the lung tissue homogenate sample was taken, and 30.0 µL of an internal standard working solution and 200 µL of acetonitrile were added. […] 100 µL of the supernatant was added to a 96-well plate, and 100 µL of deionized water was added.
# Chain of PDE3A (Q14432 669-1141 limits assumed): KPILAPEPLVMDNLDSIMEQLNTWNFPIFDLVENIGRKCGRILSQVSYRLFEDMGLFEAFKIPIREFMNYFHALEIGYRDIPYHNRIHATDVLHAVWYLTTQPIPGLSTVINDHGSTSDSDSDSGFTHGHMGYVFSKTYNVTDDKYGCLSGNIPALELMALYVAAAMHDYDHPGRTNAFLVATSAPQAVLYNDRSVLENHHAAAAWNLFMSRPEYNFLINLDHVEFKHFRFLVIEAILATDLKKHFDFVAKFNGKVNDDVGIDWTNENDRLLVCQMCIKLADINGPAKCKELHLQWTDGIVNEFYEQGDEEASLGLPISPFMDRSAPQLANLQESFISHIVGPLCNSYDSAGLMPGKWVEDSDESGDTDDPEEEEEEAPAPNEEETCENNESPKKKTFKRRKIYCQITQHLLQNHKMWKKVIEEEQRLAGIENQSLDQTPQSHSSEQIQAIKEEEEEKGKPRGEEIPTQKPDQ
Structure (SMILES),IC50 (PDE3A) [nM],inhibition at 0.5 µM (PDE3A; read-out: Inhibition rate (%) PDE3A (500 nM)) [%],IC50 (PDE4B1) [nM],inhibition at 2 µM (PDE4B1) [%],half-life (in vivo) [min],Tmax (in vivo; Plasma Tmax (h)) [min]
"COc1cc2c(cc1OC)-c1cc(=Nc3c(C)cc(C)cc3C)n(CCNC(N)=O)c(=O)n1CC2 [RPL554, 9,10-dimethoxy-2-(2,4,6-trimethylphenylimino)-3-(N-carbamoyl-2-aminoethyl)-3,4,6,7-tetrahydro-2H-pyrimido[6,1-a]isoquinolin-4-one]",0.25,99.2,110,64.2,52.8,15
CCOc1cc2c(cc1OC)-c1cc(=Nc3c(C)cc(C)cc3C)n(CCN3CCOC3=O)c(=O)n1CC2 [WX001],–,–,876,66.3,–,–
